In patent US20110269811A1, “INHIBITORS OF SEMICARBAZIDE-SENSITIVE AMINE OXIDASE (SSAO) AND VAP-1 MEDIATED ADHESION USEFUL FOR TREATMENT AND PREVENTION OF DISEASES” (priority 2006, published 2011):
Values belong to the compound of their own block, whether it stands above or below them.

Columns and labels:
[1] = molecular target: T1, AT2 (h) (Homo sapiens, UniProt P50052); test: Receptor binding screen, [^125I]CGP 42112A; conditions: 10 uM Concentration of Compound I-1-Z; read-out: Mean Value, percent inhibition of control specific binding: AT2 (h)
T1 construct: expressed in transfected cells; host or cells: Hela cells
T1 sequence (P50052 whole entry): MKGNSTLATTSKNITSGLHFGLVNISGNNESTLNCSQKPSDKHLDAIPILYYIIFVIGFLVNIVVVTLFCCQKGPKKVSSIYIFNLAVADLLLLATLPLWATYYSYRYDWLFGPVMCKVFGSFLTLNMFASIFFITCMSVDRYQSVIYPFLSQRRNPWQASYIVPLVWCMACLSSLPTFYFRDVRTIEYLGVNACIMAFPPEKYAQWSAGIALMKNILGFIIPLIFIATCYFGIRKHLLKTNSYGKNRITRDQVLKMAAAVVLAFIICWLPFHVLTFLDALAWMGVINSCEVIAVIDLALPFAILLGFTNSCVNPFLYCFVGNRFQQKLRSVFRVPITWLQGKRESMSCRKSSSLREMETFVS

[2] = molecular target: T2, CCKB (h) (CCK2) (Homo sapiens, UniProt P32239); test: Receptor binding screen, [^125I]CCK-8; conditions: 10 uM Concentration of Compound I-1-Z; read-out: Mean Value, percent inhibition of control specific binding: CCKB (h) (CCK2)
T2 construct: expressed in transfected cells; host or cells: CHO cells
T2 sequence (P32239 whole entry): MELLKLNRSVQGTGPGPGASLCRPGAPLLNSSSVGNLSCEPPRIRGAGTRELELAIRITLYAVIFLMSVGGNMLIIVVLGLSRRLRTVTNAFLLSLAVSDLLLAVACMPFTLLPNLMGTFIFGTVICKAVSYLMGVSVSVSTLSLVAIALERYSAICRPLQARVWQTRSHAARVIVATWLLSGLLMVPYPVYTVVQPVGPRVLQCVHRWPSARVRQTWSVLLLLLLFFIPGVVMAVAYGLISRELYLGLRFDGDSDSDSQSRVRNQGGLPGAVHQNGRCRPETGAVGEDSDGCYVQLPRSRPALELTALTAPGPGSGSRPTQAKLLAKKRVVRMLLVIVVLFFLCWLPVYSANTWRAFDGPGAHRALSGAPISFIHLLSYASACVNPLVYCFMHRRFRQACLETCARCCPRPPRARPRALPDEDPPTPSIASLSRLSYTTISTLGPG

[3] = molecular target: T3, AT1 (h) (Homo sapiens, UniProt P30556); test: Receptor binding screen, [^125I][Sar^1,Ile^8]-ATII; conditions: 10 uM Concentration of Compound I-1-Z; read-out: Mean Value, percent inhibition of control specific binding: AT1 (h)
T3 construct: expressed in transfected cells; host or cells: CHO cells
T3 sequence (P30556 whole entry): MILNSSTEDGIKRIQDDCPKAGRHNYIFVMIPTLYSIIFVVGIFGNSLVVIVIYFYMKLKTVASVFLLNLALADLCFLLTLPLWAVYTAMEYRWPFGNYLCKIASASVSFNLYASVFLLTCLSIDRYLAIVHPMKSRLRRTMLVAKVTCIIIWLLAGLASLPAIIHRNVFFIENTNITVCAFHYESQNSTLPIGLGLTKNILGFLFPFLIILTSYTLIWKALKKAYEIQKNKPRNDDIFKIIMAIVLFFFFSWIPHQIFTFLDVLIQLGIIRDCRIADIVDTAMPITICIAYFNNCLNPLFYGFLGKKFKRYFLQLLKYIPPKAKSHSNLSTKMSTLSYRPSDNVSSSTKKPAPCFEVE

[4] = system: Cl^− channel; test: Receptor binding screen, [^35S]TBPS; set-up: species or system rat; conditions: 10 uM Concentration of Compound I-1-Z
[5] = system: σ (non-selective); test: Receptor binding screen, [^3H]DTG; set-up: species or system rat; conditions: 10 uM Concentration of Compound I-1-Z
Method: For Table 4 below, the specific ligand binding to the receptors is defined as the difference between the total binding and the nonspecific binding determined in the presence of an excess of unlabelled ligand. The results are expressed as a percent inhibition of control specific binding obtained in the presence of Compound I-1-Z. The IC50 values (concentration causing a half-maximal inhibition of control specific binding) and Hill coefficients (nH) were determined by non-linear regression analysis of the competition curves using Hill equation curve fitting. The inhibition constants (Ki) were calculated from the Cheng Prusoff equation (Ki=IC50/(1+(L/KD)), where L=concentration of radioligand in the assay, and KD=affinity of the radioligand for the receptor). In each experiment, the respective reference compound was tested concurrently with Compound I-1-Z in order to assess the assay suitability.

[6] = system: collagen-induced arthritis; test: Collagen-induced arthritis by direct injection of Type II collagen; format: in vivo, B10RIII mice; conditions: FIG. 15
Method: Collagen-induced arthritis can also be induced by direct injection of collagen. Groups of 15 male B10RIII mice were injected intradermally with Type II collagen in Complete Freund Adjuvant (CFA) on days 0 and 15. Mice were dosed p.o. starting from day 0 to day 28 with phosphate buffered saline (PBS), 5 mg/kg compound I-1-Z, 30 mg/kg compound I-1-Z or 0.2 mg/kg dexamethasone. […] Clinical scores were determined daily for each paw based on a scale between 0-5 based on joint erythema and swelling. Statistical analysis was by Student's t-test versus the PBS-treated disease control group.

[7] = molecular target: T4, Rat SSAO (Rattus norvegicus, UniProt O08590); test: In vitro inhibition of SSAO activity, rat lung homogenate, 14C-benzylamine; format: biochemical
T4 construct: rat lung or human umbilical cord homogenates were prepared by chopping the freshly removed tissue; from tissue; host or cells: rat lung homogenate (1000 g supernatant)
T4 sequence (O08590 1-763): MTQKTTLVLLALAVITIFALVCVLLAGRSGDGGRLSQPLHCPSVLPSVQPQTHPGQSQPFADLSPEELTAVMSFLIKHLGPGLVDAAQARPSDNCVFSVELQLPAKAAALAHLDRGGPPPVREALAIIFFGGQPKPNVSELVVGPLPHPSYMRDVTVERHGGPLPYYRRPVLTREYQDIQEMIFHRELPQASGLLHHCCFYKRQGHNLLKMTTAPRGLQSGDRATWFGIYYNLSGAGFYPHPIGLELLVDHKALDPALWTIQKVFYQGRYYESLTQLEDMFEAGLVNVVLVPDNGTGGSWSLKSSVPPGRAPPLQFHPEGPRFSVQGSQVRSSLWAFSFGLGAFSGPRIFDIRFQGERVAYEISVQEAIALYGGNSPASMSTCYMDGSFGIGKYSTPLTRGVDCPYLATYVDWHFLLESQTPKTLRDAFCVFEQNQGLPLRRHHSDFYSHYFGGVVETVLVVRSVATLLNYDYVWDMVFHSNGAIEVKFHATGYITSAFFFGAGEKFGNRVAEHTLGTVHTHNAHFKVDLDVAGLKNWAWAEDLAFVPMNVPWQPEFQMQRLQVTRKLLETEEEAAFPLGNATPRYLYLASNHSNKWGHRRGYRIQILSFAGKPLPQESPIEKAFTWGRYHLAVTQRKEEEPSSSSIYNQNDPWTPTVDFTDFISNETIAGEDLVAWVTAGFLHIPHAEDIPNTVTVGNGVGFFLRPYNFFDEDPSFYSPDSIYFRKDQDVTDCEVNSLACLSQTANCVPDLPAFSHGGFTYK
Method: SSAO activity was measured as described (Lizcano J M. Et al. (1998) Biochem J. 331:69). Briefly, rat lung or human umbilical cord homogenates were prepared by chopping the freshly removed tissue into small pieces and washing them thoroughly in PBS. The tissue was then homogenized 1:10 (w/v) for lung or 1:5 (w/v) for umbilical cord, in 10 mM potassium phosphate buffer (pH 7.8). Homogenates were then centrifuged at 1000 g at 4° C. for 10 min (lung) or 25,000 g for 30 min (umbilical cord); the supernatants were kept frozen until ready to use. Lung or umbilical cord homogenate was preincubated with clorgyline and pargyline at 1 μM to inhibit MAO-A and -B activity, respectively, and SSAO inhibitors were generally present at 1 nM-10 μM. The reaction was initiated by addition of 20 μM ^14C— benzylamine as substrate. The reaction was carried out at 37° C. in a final volume of 400 μL of 100 mM potassium phosphate buffer (pH 7.2) and stopped with 100 μl of 2M citric acid. Radioactively labeled products were extracted into toluene/ethyl acetate (1:1, v/v) containing 0.6% (w/v) 2,5-diphenyloxazole (PPO) before liquid scintillation counting.

[8] = molecular target: T5, ETA (h) (Homo sapiens, UniProt P25101); test: Receptor binding screen, [^125I]endothelin-1; conditions: 10 uM Concentration of Compound I-1-Z; read-out: Mean Value, percent inhibition of control specific binding: ETA (h)
T5 construct: expressed in transfected cells; host or cells: CHO cells
T5 sequence (P25101 21-427): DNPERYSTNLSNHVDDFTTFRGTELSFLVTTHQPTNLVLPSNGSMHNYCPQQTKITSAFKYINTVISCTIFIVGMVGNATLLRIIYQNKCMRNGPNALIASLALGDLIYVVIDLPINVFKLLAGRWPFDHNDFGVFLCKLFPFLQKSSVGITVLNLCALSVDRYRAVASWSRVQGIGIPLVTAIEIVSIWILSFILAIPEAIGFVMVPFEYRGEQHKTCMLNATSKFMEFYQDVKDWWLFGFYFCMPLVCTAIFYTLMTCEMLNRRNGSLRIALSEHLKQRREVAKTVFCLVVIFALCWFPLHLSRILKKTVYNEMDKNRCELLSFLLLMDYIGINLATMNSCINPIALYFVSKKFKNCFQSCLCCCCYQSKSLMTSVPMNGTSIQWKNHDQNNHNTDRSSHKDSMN

[9] = molecular target: T6, NT1 (h) (NTS1) (Homo sapiens, UniProt P30989); test: Receptor binding screen, [^125I]Tyr^3-neurotensin; conditions: 10 uM Concentration of Compound I-1-Z; read-out: Mean Value, percent inhibition of control specific binding: NT1 (h) (NTS1)
T6 construct: expressed in transfected cells; host or cells: CHO cells
T6 sequence (P30989 whole entry): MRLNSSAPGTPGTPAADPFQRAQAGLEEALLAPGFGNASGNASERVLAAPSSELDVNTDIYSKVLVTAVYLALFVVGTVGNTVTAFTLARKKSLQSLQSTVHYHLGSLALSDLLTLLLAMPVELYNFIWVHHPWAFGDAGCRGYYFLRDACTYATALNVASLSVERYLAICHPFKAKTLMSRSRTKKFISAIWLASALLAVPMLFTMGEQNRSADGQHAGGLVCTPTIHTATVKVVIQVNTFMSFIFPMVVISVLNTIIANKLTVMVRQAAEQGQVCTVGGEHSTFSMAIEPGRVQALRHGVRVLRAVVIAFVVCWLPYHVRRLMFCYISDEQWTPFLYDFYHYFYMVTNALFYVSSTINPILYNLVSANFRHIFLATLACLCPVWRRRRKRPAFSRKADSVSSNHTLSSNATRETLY

[10] = molecular target: T7, VIP1 (h) (VPAC1) (Homo sapiens, UniProt P32241); test: Receptor binding screen, [^125I]VIP; conditions: 10 uM Concentration of Compound I-1-Z; read-out: Mean Value, percent inhibition of control specific binding: VIP1 (h) (VPAC1)
T7 construct: expressed in transfected cells; host or cells: CHO cells
T7 sequence (P32241 31-457): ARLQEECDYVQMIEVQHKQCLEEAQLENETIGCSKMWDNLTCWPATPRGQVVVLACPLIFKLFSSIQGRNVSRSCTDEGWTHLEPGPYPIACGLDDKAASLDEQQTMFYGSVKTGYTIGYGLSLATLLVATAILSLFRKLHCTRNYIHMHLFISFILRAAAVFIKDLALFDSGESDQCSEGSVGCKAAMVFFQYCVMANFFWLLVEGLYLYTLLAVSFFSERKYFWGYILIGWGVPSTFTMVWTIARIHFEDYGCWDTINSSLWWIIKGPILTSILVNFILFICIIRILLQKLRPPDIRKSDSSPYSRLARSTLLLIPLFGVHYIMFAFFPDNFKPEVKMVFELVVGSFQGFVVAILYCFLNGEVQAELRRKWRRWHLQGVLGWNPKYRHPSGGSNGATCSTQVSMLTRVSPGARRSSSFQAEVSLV

[11] = molecular target: T8, Y1 (h) (Homo sapiens, UniProt P25929); test: Receptor binding screen, [^125I]peptide YY, SK-N-MC cells; conditions: 10 uM Concentration of Compound I-1-Z; read-out: Mean Value, percent inhibition of control specific binding: Y1 (h)
T8 construct: SK-N-MC cells; endogenous in cells; host or cells: SK-N-MC cells
T8 sequence (P25929 whole entry): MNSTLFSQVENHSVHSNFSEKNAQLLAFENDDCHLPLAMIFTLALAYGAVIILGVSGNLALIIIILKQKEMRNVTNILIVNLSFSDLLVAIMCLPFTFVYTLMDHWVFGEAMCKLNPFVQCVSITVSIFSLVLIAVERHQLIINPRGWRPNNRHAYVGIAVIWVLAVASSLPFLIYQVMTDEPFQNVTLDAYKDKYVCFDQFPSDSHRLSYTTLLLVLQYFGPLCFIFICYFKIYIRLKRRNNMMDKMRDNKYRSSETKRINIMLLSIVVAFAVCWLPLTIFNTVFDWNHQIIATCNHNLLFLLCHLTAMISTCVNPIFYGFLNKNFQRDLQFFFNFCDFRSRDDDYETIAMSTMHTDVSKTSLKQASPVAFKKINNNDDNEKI

SMILES: COc1ccc(C/C(=C/F)CN)cc1.Cl [Compound I-1-Z, (Z)-3-Fluoro-2-(4-methoxybenzyl)-allylamine hydrochloride]
- inhibition at 10 µM [1]: -19%
- inhibition at 10 µM [2]: -5%
- inhibition at 10 µM [3]: 10%
- Mean Value, percent inhibition of control specific binding: Cl^− channel [4]: −6%
- Mean Value, percent inhibition of control specific binding: σ (non-selective) [5]: 24%
- incidence of arthritis and clinical scores as compared to PBS ([6]; 5 mg/kg p.o. day 0 to day 28): reduced both the incidence of arthritis and the clinical scores
- clinical efficacy ([6]; 30 mg/kg p.o. day 0 to day 28): no clinical efficacy was observed
- IC50 [7]: 13 nM
- inhibition at 10 µM [8]: 8%
- inhibition at 10 µM [9]: -1%
- inhibition at 10 µM [10]: -13%
- inhibition at 10 µM [11]: -2%

- IC50 [7]: 8 nM
SMILES: CCOc1ccc(C/C(=C\F)CN)cc1.Cl [Compound I-2-E, (E)-3-Fluoro-2-(4-ethoxybenzyl)-allylamine hydrochloride]

- IC50 [7]: 5 nM
SMILES: CCOc1ccc(C/C(=C/F)CN)cc1.Cl [Compound I-2-Z, (Z)-3-Fluoro-2-(4-ethoxybenzyl)-allylamine hydrochloride]

SMILES: NC/C(F)=C\Cc1cc(F)cc(C(F)(F)F)c1 [II-1-E, (E)-2-Fluoro-4-(3-fluoro-5-trifluoromethylphenyl)-but-2-enylamine]
- IC50 [7]: 38 nM
